According to patent US8293729B2 (Boehringer Ingelheim International GmbH, priority 2009, dated 2012):
pEC50: −log10 of the molar value.

These compounds were tested against T1, human GPR119 receptor (Homo sapiens, UniProt Q8TDV5, S329A/T327A) (assay: cAMP assay (LANCE cAMP-384) in HEK293 cells stably expressing mutant human GPR119 receptor). Conditions: HEK293, 20 min; at 10 μM; printed in EC50 column of the 36th table; read-out: stimulation in % at 10 μM.
T1 construct: N-terminal leader […]; expressed in transfected cells
T1 sequence (Q8TDV5 with tags, fused parts or gaps T327A/S329A): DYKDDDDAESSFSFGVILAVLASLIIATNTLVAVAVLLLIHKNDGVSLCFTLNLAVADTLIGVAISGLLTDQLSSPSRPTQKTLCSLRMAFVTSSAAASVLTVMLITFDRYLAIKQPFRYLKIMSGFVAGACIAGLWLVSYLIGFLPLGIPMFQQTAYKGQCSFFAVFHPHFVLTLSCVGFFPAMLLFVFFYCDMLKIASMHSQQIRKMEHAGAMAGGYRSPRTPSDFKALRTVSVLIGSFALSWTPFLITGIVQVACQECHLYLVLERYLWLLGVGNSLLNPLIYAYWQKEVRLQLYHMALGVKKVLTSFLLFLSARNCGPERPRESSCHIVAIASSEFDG
Type: cell-based
Method in brief: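 Agonist EC50 came from nonlinear regression over 12 concentrations (30 μM–100 pM), with % stimulation at 10 μM where no EC50 was obtained. Cells: stable HEK293 with mutant human GPR119 (T327A/S329A), 20 min compound at 37° C; cAMP read by LANCE kit with standard curve.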
For `CS(=O)(=O)c1ccc(N2CCC(=NOC3CCN(Cc4ccc5c(c4)CCO5)CC3)CC2)c(F)c1` [Example 66-35], the activation at 10 µM was 61%.
With `CS(=O)(=O)c1ccc(N2CCC(=NOC3CCN(Cc4ccc5c(c4)OCO5)CC3)CC2)c(F)c1` [Example 66-37] the activation at 10 µM was 87%.

Same assay, conditions: HEK293, 20 min; single concentration 10 μM; given where no EC50 value could be determined; read-out: % stimulation at 10 μM
Compound `CC(C)OC(=O)N1CCC(ON=C2CCN(c3cc(F)c(C4=NCCN4)cc3F)CC2)CC1` [Example 19-1, 4-{1-[4-(4,5-Dihydro-1H-imidazol-2-yl)-2,5-difluoro-phenyl]-piperidin-4-ylideneaminooxy}-piperidine-1-carboxylic acid isopropyl ester] has an activation at 10 µM of 53%.

Same assay, conditions: cAMP accumulation, HEK293 cells stably expressing mutant human GPR119; read-out: EC50
`CC(C)OC(=O)N1CCC(ON=C2CCN(c3cc(F)c(CS(C)(=O)=O)cc3F)CC2)CC1` [Example 13-1, 4-[1-(2,5-Difluoro-4-methanesulfonylmethyl-phenyl)-piperidin-4-ylideneaminooxy]-piperidine-1-carboxylic acid isopropyl ester] showed a pEC50 of 7.52.
Compound `Cc1nc(N2CCC(=NOC3CCN(C(=O)OC(C)C)CC3)CC2)c(F)cc1CO` [Example 55-1, 4-(3′-Fluoro-5′-hydroxymethyl-6′-methyl-2,3,5,6-tetrahydro-[1,2′]bipyridinyl-4-ylideneaminooxy)-piperidine-1-carboxylic acid isopropyl ester] has a pEC50 of 6.69.
`COC(=O)c1nc(Cl)c(N2CCC(=NOC3CCN(C(=O)OC(C)C)CC3)CC2)nc1N` [Example 2-34] was tested, and the pEC50 was under 5.00.
For `CC(C)OC(=O)N1CCC(ON=C2CCN(c3cc(F)c(-c4cncnc4)cc3F)CC2)CC1` [Example 27-6], the pEC50 was 6.61.
Compound `CC(C)OC(=O)N1CCC(ON=C2CCN(c3ncc(C#N)c(N)n3)CC2)CC1` [Example 2-18] has a pEC50 of under 5.00.
`CC(C)OC(=O)N1CCC(ON=C2CCN(c3ncc(F)cc3F)CC2)CC1` [Example 2-69] was tested, and the pEC50 was 5.99.
In the case of `CC(C)OC(=O)N1CCC(ON=C2CCN(c3cc(F)c(-c4ccc[nH]4)cc3F)CC2)CC1` [Example 27-7], the pEC50 was 6.36.
With `CC(C)OC(=O)N1CCC(ON=C2CCN(c3cc(F)c(C(=O)NCCCN)cc3F)CC2)CC1` [Example 31-3] the pEC50 was 6.27.
`CC(C)OC(=O)N1CCC(ON=C2CCN(c3cc(F)c(C#N)cc3F)CC2)CC1` [Example 2-2] showed a pEC50 of 6.40.
`CC(C)OC(=O)N1CCC(ON=C2CCN(c3nncs3)CC2)CC1` [Example 2-14] showed a pEC50 of under 5.00.
Work on `CC(C)OC(=O)N1CCC(ON=C2CCN(c3cc(F)c(-c4nccs4)cc3F)CC2)CC1` [Example 27-18] yielded a pEC50 of 6.86.
Compound `CC(C)OC(=O)NCc1cc(F)c(N2CCC(=NOC3CCN(C(=O)OC(C)C)CC3)CC2)cc1F` [Example 16-7] has a pEC50 of 6.87.
With `CC(C)OC(=O)N1CCC(ON=C2CCN(c3nc(Cl)c(CO)nc3Cl)CC2)CC1` [Example 56-1, 4-[1-(3,6-Dichloro-5-hydroxymethyl-pyrazin-2-yl)-piperidin-4-ylideneaminooxy]-piperidine-1-carboxylic acid isopropyl ester] the pEC50 was 7.46.
`CC(C)OC(=O)N1CCC(ON=C2CCN(c3cc(F)c(-c4cc[nH]n4)cc3F)CC2)CC1` [Example 27-9] was tested, and the pEC50 was 6.63.
`CC(C)OC(=O)N1CCC(ON=C2CCN(c3nc(C=O)c(Cl)s3)CC2)CC1` [Example 2-25] showed a pEC50 of under 5.00.
For `CC(C)OC(=O)N1CCC(ON=C2CCN(c3cc(F)c(COC(=O)[C@@H](NC(=O)OC(C)(C)C)C(C)C)cc3F)CC2)CC1` [Example 42-1, 4-{1-[4-((S)-2-tert-Butoxycarbonylamino-3-methyl-butyryloxymethyl)-2,5-difluoro-phenyl]-piperidin-4-ylideneaminooxy}-piperidine-1-carboxylic acid isopropyl ester], the pEC50 was 6.03.
`CC(C)OC(=O)N1CCC(ON=C2CCN(c3ncccc3F)CC2)CC1` [Example 2-37] was tested, and the pEC50 was 6.20.
`CC(C)OC(=O)N1CCC(ON=C2CCN(c3ccncc3)CC2)CC1` [Example 2-9] gave a pEC50 of under 5.00.
`Cc1cc(N2CCC(=NOC3CCN(C(=O)OC(C)C)CC3)CC2)c(F)cc1C(N)=O` [Example 2-76] gave a pEC50 of 6.27.
With `CC(C)OC(=O)N1CCC(ON=C2CCN(c3c(C(=O)O)ccnc3Cl)CC2)CC1` [Example 2-59] the pEC50 was under 5.00.

Same assay, conditions: the 15th table; read-out: EC50
Compound `COCCCNC(=O)c1cc(F)c(N2CCC(=NOC3CCN(C(=O)OC(C)C)CC3)CC2)cc1F` [Example 29-10] has a pEC50 of 7.55.
For `CC(C)OC(=O)N1CCC(ON=C2CCN(c3cc(F)c(C(=O)N(C)C)cc3F)CC2)CC1` [Example 29-1, 4-[1-(4-Dimethylcarbamoyl-2,5-difluoro-phenyl)-piperidin-4-ylideneaminooxy]-piperidine-1-carboxylic acid isopropyl ester], the pEC50 was 6.89.
`CC(C)OC(=O)N1CCC(ON=C2CCN(c3cc(F)c(C(=O)N4CCC(CN(C)C)CC4)cc3F)CC2)CC1` [Example 29-47] gave a pEC50 of 6.58.

Same assay, conditions: the 19th table; unit inferred; read-out: EC 50
`CCc1cnc(N2CCC(ON=C3CCN(c4cc(F)c(C(=O)N5CC[C@H](N)C5)cc4F)CC3)CC2)nc1` [Example 29-119] gave a pEC50 of 7.12.
For `CCc1cnc(N2CCC(ON=C3CCN(c4cc(F)c(C(=O)NCC5CCCN5C)cc4F)CC3)CC2)nc1` (stereo not shown) [Example 29-138], the pEC50 was 6.73.
For `CCc1cnc(N2CCC(ON=C3CCN(c4cc(F)c(C(=O)N5CCC[C@H](N)C5)cc4F)CC3)CC2)nc1` [Example 29-89], the pEC50 was 7.13.
`CCc1cnc(N2CCC(ON=C3CCN(c4cc(F)c(C(=O)N5CCC[C@@H]5CNC)cc4F)CC3)CC2)nc1` [Example 29-135] was tested, and the pEC50 was 6.53.
In the case of `CCc1cnc(N2CCC(ON=C3CCN(c4cc(F)c(C(=O)N5C[C@H]6CNC[C@H]6C5)cc4F)CC3)CC2)nc1` [Example 29-111], the pEC50 was 6.53.

Same assay, conditions: the 28th table; read-out: EC50
Work on `CC(C)OC(=O)N1CCC(ON=C2CCN(c3ncc(-n4cncn4)cn3)CC2)CC1` [Example 51-4] yielded a pEC50 of 6.13.

Same assay, conditions: the 31st table; read-out: EC50
With `CC(C)OC(=O)N1CCC(ON=C2CCCN(c3ccc(S(C)(=O)=O)cc3F)C2)CC1` (mixture of isomers) [Example 61-1, 4-[1-(2-Fluoro-4-methanesulfonyl-phenyl)-piperidin-(3Z)-ylideneaminooxy]-piperidine-1-carboxylic acid isopropyl ester] the pEC50 was under 5.00.

Same assay, conditions: the 32nd table; read-out: EC50
`Cc1cc(C(F)(F)F)cc(N2CCC(ON=C3CCN(c4ccc(S(C)(=O)=O)cc4F)CC3)CC2)n1` [Example 63-13] showed a pEC50 of 5.83.

Same assay, conditions: the 33rd table; read-out: EC50
Work on `CN1CCCC(OC(=O)N2CCC(ON=C3CCN(c4ccc(S(C)(=O)=O)cc4F)CC3)CC2)C1` (stereo not shown) [Example 64-19] yielded a pEC50 of under 5.00.
`CC1(COC(=O)N2CCC(ON=C3CCN(c4ccc(S(C)(=O)=O)cc4F)CC3)CC2)CC1` [Example 64-7] showed a pEC50 of 7.17.
Work on `CN1CCC(OC(=O)N2CCC(ON=C3CCN(c4ccc(S(C)(=O)=O)cc4F)CC3)CC2)C1` (stereo not shown) [Example 64-13] yielded a pEC50 of under 5.00.
Work on `CS(=O)(=O)c1ccc(N2CCC(=NOC3CCN(C(=O)OCC4CC4)CC3)CC2)c(F)c1` [Example 64-2] yielded a pEC50 of 7.00.

Same assay, conditions: the 34th table, compounds 65-1 to 65-24; read-out: EC50
With `CCN(CC)C(=O)CN1CCC(ON=C2CCN(c3ccc(S(C)(=O)=O)cc3F)CC2)CC1` [Example 65-1, N,N-Diethyl-2-{4-[1-(2-fluoro-4-methanesulfonyl-phenyl)-piperidin-4-ylideneaminooxy]-piperidin-1-yl}-acetamide] the pEC50 was under 5.00.
`CS(=O)(=O)c1ccc(N2CCC(=NOC3CCN(C(=O)Nc4ccccc4)CC3)CC2)c(F)c1` [Example 65-17] showed a pEC50 of 5.69.
`CS(=O)(=O)c1ccc(N2CCC(=NOC3CCN(C(=O)OCc4ccccc4)CC3)CC2)c(F)c1` [Example 65-14] was tested, and the pEC50 was 6.82.

Same assay, conditions: the 36th table, compounds 66-1 to 66-51; read-out: EC50
With `CS(=O)(=O)c1ccc(N2CCC(=NOC3CCN(Cc4ccccc4Cl)CC3)CC2)c(F)c1` [Example 66-17] the pEC50 was 6.18.
In the case of `CS(=O)(=O)c1ccc(N2CCC(=NOC3CCN(Cc4ccccc4)CC3)CC2)c(F)c1` [Example 66-15], the pEC50 was 6.01.

Same assay, conditions: the 37th table, compounds 66-52 to 66-64; read-out: EC50
Compound `Cc1ccc(CN2CCC(ON=C3CCN(c4cc(F)c(S(C)(=O)=O)cc4F)CC3)CC2)cc1` [Example 66-54] has a pEC50 of 7.36.
In the case of `CS(=O)(=O)c1cc(F)c(N2CCC(=NOC3CCN(Cc4ccc(-c5ccccn5)cc4)CC3)CC2)cc1F` [Example 66-52], the pEC50 was 6.03.
`CCCc1ccc(CN2CCC(ON=C3CCN(c4cc(F)c(S(C)(=O)=O)cc4F)CC3)CC2)c(F)c1` [Example 66-59] gave a pEC50 of 7.28.

Same assay, conditions: the 38th table, compounds 66-65 to 66-72; read-out: EC50
With `CNC(=O)c1cc(F)c(N2CCC(=NOC3CCN(Cc4ccc(C(F)(F)F)cc4)CC3)CC2)cc1F` [Example 66-67] the pEC50 was 6.81.
`CNC(=O)c1cc(F)c(N2CCC(=NOC3CCN(Cc4ccc(C)cc4)CC3)CC2)cc1F` [Example 66-70] showed a pEC50 of 6.71.

Same assay, conditions: the 43rd table, compounds 75-1 to 75-38; read-out: EC50
Work on `CC(C)OC(=O)N1CCC(ON=C2CCN(c3cc(F)c(CC(=O)N4CCC(CN(C)C)CC4)cc3F)CC2)CC1` [Example 75-38] yielded a pEC50 of 7.04.
Compound `CC(C)OC(=O)N1CCC(ON=C2CCN(c3cc(F)c(CC(=O)N4CC[C@H](N)C4)cc3F)CC2)CC1` [Example 75-20] has a pEC50 of 7.35.

Same assay, conditions: the 44th table, compounds 77-1 to 77-14; read-out: EC50
In the case of `CCc1cnc(N2CCC(ON=C3CCN(c4cc(F)c(CC(=O)N5CC[C@@H](N)C5)cc4F)CC3)CC2)nc1` [Example 77-11], the pEC50 was 7.33.
`CCc1cnc(N2CCC(ON=C3CCN(c4cc(F)c(CC(=O)N5CCC[C@H](N)C5)cc4F)CC3)CC2)nc1` [Example 77-7] showed a pEC50 of 7.35.
